The target of data set [1] is T1, Platelet-derived growth factor receptor alpha (Homo sapiens, UniProt P16234). Nature of the data set: Inhibition of PDGFRalpha (unknown origin) using FAM-labeled peptide as substrate preincubated for 10 mins followed by substrate addition in presence of ATP by mobility shift assay.
For data set [2], the target named is Fibroblast growth factor receptor 1 (Homo sapiens, UniProt P11362). Nature of the data set: Inhibition of FGFR1 (unknown origin) using FAM-labeled peptide as substrate preincubated for 10 mins followed by substrate addition in presence of ATP by mobility shift assay.
The target of data set [3] is Vascular endothelial growth factor receptor 2 (Homo sapiens, UniProt P35968).
Description: Inhibition of VEGFR2 (unknown origin) using FAM-labeled peptide as substrate preincubated for 10 mins followed by substrate addition in presence of ATP by mobility shift assay
Data set [4] deals with T2, Mast/stem cell growth factor receptor Kit (Homo sapiens, UniProt P10721).
Description: Inhibition of TEL-fused cKIT (unknown origin) expressed in mouse BAF3 cells assessed as cell growth inhibition after 72 hrs by cell titer-glo assay
For data set [5], the system named is Mast/stem cell growth factor receptor Kit (Homo sapiens), P10721 [T670I].
Description: Inhibition of TEL-fused cKIT T670I mutant (unknown origin) expressed in mouse BAF3 cells assessed as cell growth inhibition after 72 hrs by cell titer-glo assay
Data set [6] concerns the target T1, Platelet-derived growth factor receptor alpha.
Description: Inhibition of TEL-fused PDGFRalpha (unknown origin) expressed in mouse BAF3 cells assessed as cell growth inhibition after 72 hrs by cell titer-glo assay
The subject of data set [7] is Platelet-derived growth factor receptor alpha (Homo sapiens), P16234 [T674I].
Description: Inhibition of TEL-fused PDGFRalpha T674I mutant (unknown origin) expressed in mouse BAF3 cells assessed as cell growth inhibition after 72 hrs by cell titer-glo assay
Data set [8] deals with Platelet-derived growth factor receptor beta (Homo sapiens, UniProt P09619). In words: Inhibition of PDGFRbeta (unknown origin) using FAM-labeled peptide as substrate preincubated for 10 mins followed by substrate addition in presence of ATP by mobility shift assay.
For data set [9], the target named is Receptor-type tyrosine-protein kinase FLT3 (Homo sapiens, UniProt P36888). Nature of the data set: Inhibition of FLT3 (unknown origin) using FAM-labeled peptide as substrate preincubated for 10 mins followed by substrate addition in presence of ATP by mobility shift assay.
The target of data set [10] is Vascular endothelial growth factor receptor 1 (Homo sapiens, UniProt P17948). In words: Inhibition of VEGFR1 (unknown origin) using FAM-labeled peptide as substrate preincubated for 10 mins followed by substrate addition in presence of ATP by mobility shift assay.
Data set [11] addresses Vascular endothelial growth factor receptor 3 (Homo sapiens, UniProt P35916). In words: Inhibition of VEGFR3 (unknown origin) using FAM-labeled peptide as substrate preincubated for 10 mins followed by substrate addition in presence of ATP by mobility shift assay.
Data set [12] deals with T2, Mast/stem cell growth factor receptor Kit. This is another data set of the same source.
Description: Inhibition of cKIT (unknown origin) using FAM-labeled peptide as substrate preincubated for 10 mins followed by substrate addition in presence of ATP by mobility shift assay
Data set [13] can be described thus: Antiproliferative activity against mouse BAF3 cells assessed as cell growth inhibition after 72 hrs by cell titer-glo assay. It is filed as cell-based.
Data set [14] can be described thus: Antiproliferative activity against CHL cells assessed as cell growth inhibition after 72 hrs by cell titer-glo assay. The class given is cell-based, Cricetulus griseus. Particulars: chinese hamster.
Data set [15] in a line: Antiproliferative activity against CHO cells assessed as cell growth inhibition after 72 hrs by cell titer-glo assay. It is filed as cell-based, Cricetulus griseus. Particulars: chinese hamster.
In data set [16] the test system is GISTT1. Nature of the data set: Antiproliferative activity against human GISTT1 cells assessed as cell growth inhibition after 72 hrs by cell titer-glo assay. The class given is functional. Particulars: GISTT1, 72 h.
The subject of another data set is GIST882. In words: Antiproliferative activity against human GIST882 cells assessed as cell growth inhibition after 72 hrs by cell titer-glo assay. It is filed as functional. Particulars: GIST882, 72 h.
A short description of data set [17]: Antiproliferative activity against human GIST48B cells assessed as cell growth inhibition after 72 hrs by cell titer-glo assay. The class given is functional.
The next data set relates to KU812 cell line. Nature of the data set: Antiproliferative activity against human KU812 cells assessed as cell growth inhibition after 72 hrs by cell titer-glo assay. The class given is functional. Particulars: KU812, 72 h.
The test system of a further data set is MEG-01. In words: Antiproliferative activity against human MEG01 cells assessed as cell growth inhibition after 72 hrs by cell titer-glo assay. The class given is functional. Particulars: MEG-01, 72 h.
Data set [18] has as its system GISTT1. Nature of the data set: Antitumor activity against human GISTT1 cells xenografted in nu/nu mouse assessed as tumor growth inhibition at 100 mg/kg, ip administered daily for 28 days relative to control. The class given is functional. Particulars: 672 h, read-out: TGI.
Data set [19] deals with Mast/stem cell growth factor receptor Kit (Homo sapiens), P10721 [C674S].
Description: Inhibition of TEL-fused cKIT C674S mutant (unknown origin) expressed in mouse BAF3 cells assessed as cell growth inhibition after 72 hrs by cell titer-glo assay
In data set [20] the test system is Mast/stem cell growth factor receptor Kit (Homo sapiens), P10721 [L576P].
Description: Inhibition of TEL-fused cKIT L576P mutant (unknown origin) expressed in mouse BAF3 cells assessed as cell growth inhibition after 72 hrs by cell titer-glo assay
Data set [21] relates to Mast/stem cell growth factor receptor Kit (Homo sapiens), P10721 [V654A].
Description: Inhibition of TEL-fused cKIT V654A mutant (unknown origin) expressed in mouse BAF3 cells assessed as cell growth inhibition after 72 hrs by cell titer-glo assay
The subject of data set [22] is Mast/stem cell growth factor receptor Kit (Homo sapiens), P10721 [V559D,V654A].
The subject of data set [23] is Mast/stem cell growth factor receptor Kit (Homo sapiens), P10721 [A829P].
Description: Inhibition of TEL-fused cKIT A829P mutant (unknown origin) expressed in mouse BAF3 cells assessed as cell growth inhibition after 72 hrs by cell titer-glo assay
For data set [24], the system named is Mast/stem cell growth factor receptor Kit (Homo sapiens), P10721 [N822K].
Description: Inhibition of TEL-fused cKIT N822K mutant (unknown origin) expressed in mouse BAF3 cells assessed as cell growth inhibition after 72 hrs by cell titer-glo assay
The test system of the next data set is BaF3. As to conditions: Mus musculus.

From ChEMBL document CHEMBL4011618, “Discovery of Potent, Selective Stem Cell Factor Receptor/Platelet Derived Growth Factor Receptor Alpha (c-KIT/PDGFRα) Dual Inhibitor for the Treatment of Imatinib-Resistant Gastrointestinal Stromal Tumors (GISTs)” (J Med Chem, 2017) come the findings set out here.

Structures are written as SMILES. Calls of active or inactive are those of the source. No cut-off for these calls is given here.

Platelet-derived growth factor receptor alpha (Homo sapiens), P16234 [T674I], sequence (P16234 whole entry T674I): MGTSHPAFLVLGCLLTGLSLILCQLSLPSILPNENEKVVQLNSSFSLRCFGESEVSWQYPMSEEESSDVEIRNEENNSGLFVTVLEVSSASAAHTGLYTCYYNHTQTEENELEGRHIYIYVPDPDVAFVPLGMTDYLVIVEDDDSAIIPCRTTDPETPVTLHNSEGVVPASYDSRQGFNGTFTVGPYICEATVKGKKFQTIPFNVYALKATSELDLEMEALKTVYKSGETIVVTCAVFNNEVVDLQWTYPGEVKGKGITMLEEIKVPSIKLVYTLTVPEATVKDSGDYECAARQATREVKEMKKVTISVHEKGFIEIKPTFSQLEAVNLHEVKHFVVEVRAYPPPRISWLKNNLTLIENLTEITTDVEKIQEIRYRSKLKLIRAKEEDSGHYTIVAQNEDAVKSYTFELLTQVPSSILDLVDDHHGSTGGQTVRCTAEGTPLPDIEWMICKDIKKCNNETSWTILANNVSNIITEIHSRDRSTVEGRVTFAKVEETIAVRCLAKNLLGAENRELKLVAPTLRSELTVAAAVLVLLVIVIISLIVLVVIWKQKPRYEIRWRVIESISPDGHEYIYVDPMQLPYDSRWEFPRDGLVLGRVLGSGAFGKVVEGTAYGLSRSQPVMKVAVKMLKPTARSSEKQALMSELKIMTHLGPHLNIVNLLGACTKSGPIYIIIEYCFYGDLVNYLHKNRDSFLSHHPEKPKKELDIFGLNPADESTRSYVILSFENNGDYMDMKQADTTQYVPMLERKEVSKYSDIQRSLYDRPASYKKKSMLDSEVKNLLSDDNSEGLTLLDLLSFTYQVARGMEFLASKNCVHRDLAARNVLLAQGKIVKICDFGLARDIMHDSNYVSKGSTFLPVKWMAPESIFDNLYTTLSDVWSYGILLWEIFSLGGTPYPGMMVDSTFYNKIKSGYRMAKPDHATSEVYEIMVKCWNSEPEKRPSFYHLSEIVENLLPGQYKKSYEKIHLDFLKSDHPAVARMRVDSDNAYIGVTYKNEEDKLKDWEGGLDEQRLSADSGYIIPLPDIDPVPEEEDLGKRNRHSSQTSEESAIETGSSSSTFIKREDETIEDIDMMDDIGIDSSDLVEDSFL
T2 sequence (P10721 whole entry): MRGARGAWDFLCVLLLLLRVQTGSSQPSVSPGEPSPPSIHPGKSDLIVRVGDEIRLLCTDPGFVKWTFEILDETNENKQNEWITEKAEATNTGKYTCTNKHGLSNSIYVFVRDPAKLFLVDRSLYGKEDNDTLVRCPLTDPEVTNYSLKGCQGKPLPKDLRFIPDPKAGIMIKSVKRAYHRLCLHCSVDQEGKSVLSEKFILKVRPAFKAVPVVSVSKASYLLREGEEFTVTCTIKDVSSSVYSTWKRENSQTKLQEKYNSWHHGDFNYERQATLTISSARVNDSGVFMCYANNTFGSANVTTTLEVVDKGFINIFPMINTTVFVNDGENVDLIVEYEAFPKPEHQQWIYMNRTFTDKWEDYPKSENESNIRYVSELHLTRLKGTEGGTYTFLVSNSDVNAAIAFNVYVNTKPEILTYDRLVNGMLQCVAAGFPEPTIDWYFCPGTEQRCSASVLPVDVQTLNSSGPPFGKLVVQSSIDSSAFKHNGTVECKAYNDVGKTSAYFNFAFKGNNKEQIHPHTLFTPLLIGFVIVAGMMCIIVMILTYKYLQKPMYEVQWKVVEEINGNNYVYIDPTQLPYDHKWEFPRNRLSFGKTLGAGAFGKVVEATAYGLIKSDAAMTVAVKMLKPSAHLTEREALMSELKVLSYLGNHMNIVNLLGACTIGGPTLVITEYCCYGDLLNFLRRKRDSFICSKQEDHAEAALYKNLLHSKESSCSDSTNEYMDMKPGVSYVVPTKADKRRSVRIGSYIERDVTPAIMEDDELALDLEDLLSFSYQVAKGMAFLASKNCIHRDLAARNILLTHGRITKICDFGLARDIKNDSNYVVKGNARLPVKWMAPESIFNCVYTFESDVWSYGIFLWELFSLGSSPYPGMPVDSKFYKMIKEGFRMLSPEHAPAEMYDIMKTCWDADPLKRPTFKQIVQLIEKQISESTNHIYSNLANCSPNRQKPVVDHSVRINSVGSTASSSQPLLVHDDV
Fibroblast growth factor receptor 1, sequence (P11362 whole entry): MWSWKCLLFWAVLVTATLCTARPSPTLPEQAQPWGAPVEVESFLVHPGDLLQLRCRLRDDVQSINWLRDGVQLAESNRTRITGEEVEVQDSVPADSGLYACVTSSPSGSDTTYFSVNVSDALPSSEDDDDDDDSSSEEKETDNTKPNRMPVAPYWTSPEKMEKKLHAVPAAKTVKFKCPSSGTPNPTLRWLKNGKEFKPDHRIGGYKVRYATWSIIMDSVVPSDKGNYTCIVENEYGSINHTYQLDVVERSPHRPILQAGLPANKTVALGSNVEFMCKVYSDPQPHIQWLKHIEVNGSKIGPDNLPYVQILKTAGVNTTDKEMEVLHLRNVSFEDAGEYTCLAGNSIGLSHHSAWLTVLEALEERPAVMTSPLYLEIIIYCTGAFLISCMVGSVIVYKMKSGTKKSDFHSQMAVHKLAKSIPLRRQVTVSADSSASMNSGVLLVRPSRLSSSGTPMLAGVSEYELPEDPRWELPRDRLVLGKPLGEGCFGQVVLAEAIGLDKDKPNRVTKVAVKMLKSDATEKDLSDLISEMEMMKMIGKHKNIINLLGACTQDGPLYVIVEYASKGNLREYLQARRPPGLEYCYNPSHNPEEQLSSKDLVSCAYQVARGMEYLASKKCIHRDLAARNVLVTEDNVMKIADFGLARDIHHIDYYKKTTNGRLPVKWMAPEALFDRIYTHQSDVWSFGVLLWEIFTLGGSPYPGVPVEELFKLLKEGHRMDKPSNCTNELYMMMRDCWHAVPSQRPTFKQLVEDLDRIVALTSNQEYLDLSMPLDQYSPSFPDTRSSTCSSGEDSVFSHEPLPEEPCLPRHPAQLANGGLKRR
Mast/stem cell growth factor receptor Kit (Homo sapiens), P10721 [T670I], sequence (P10721 whole entry T670I): as the sequence (P10721 whole entry) above, with T670I counted along it
T1 sequence (P16234 whole entry): as the sequence (P16234 whole entry T674I) above, with I674T counted along it
Description for BaF3: Antitumor activity against mouse BAF3 cells harboring TEL-cKIT-T670I mutant allografted in nu/nu mouse assessed as tumor growth inhibition at 100 mg/kg, ip administered daily for 11 days relative to control

Regarding `Cc1ccc(F)c(NC(=O)Nc2ccc(C3CC(O)=Nc4[nH]nc(C)c43)cc2)c1` (stereo unspecified), the IC50 in data set [1] was more than 50 µM; in data set [2] it was 33.8 µM; in [3], more than 50 µM. The GI50 in data set [4] is more than 10 µM; in data set [5], more than 10 µM; in [6], 4.25 µM; in [7] it was more than 10 µM.
Regarding `Cc1ccc(F)c(NC(=O)Nc2ccc(-c3ccnc4[nH]nc(C)c34)cc2)c1`, the IC50 was 0.087 µM in [1], more than 50 µM in data set [2] and 4.29 µM in data set [3].
As to `Cc1cccc(NC(=O)Nc2ccc(-c3ccnc4[nH]nc(C)c34)cc2)c1`, the 50% inhibitory concentration (IC50) in data set [1] was 0.04 µM; in data set [2], more than 50 µM; in [8], 0.197 µM; in [9], 1.88 µM; in data set [10], 3.49 µM; in [11] it was 0.376 µM. Besides, the values for the IC50 in data set [3] and in data set [12] were 1.23 µM and 0.0021 µM, respectively. In addition, the GI50 in [4] was determined as 0.248 µM; in [5] it was 0.318 µM; in data set [6], 0.0104 µM; in data set [7], 1.17 µM.
As for `Cc1n[nH]c2nccc(-c3ccc(NC(=O)Nc4cccc(C(F)(F)F)c4)cc3)c12`, the IC50 in data set [1] is 0.106 µM; in data set [2] it was more than 50 µM; in [3], 1.92 µM.
The corresponding values for `Cc1cccc(NC(=O)Nc2ccc(-c3cc(O)nc4[nH]nc(C)c34)cc2)c1` are 0.56 µM, 2.26 µM and 1.22 µM.
The corresponding values for `Cc1n[nH]c2nccc(-c3ccc(NC(=S)Nc4cccc(C(F)(F)F)c4)cc3)c12` are 1.57 µM, 42.9 µM and 8.01 µM.
The corresponding values for `Cc1cccc(NC(=O)Nc2ccc(C3CC(O)=Nc4[nH]nc(C)c43)cc2)c1` (stereo unspecified) are more than 50 µM, 18.3 µM and more than 50 µM.
Consider `Cc1n[nH]c2nccc(-c3ccc(NC(=S)Nc4cccc(Br)c4)cc3)c12`, for which the results for the IC50 in data set [1], in [2] and in data set [3] were 1.08 µM, 20 µM and 6.24 µM, respectively.
On to `Cc1n[nH]c2nccc(-c3ccc(NC(=O)Nc4cccc(Br)c4)cc3)c12`, for which the IC50 in data set [1] was 0.137 µM; in [2] it was more than 50 µM; in data set [3], 3.15 µM.
On to `Cc1ccc(F)c(NC(=O)Nc2ccc(-c3cc(O)nc4[nH]nc(C)c34)cc2)c1`, for which the results for the IC50 in [1], in [2] and in data set [3] were 1.18 µM, 4.64 µM and 1.86 µM, respectively. Also, the concentration for 50% growth inhibition (GI50) in [4] was more than 10 µM; in data set [5], more than 10 µM; in data set [6], 0.205 µM; in data set [7], more than 10 µM.
As for `Cc1cccc(NC(=O)Nc2ccc(-c3ccnc4[nH]nc(C(F)(F)F)c34)cc2)c1`, the IC50 in [1], in data set [3] and in data set [12] was more than 50 µM each time. For the same molecule, the GI50 in [4] was more than 10 µM; in [5] it was more than 10 µM; in data set [6] it was 0.465 µM; in [7], more than 10 µM.
As to `Cc1ccc(NC(=O)c2ccc(CN3CCN(C)CC3)cc2)cc1Nc1nccc(-c2cccnc2)n1` [IMATINIB], the results for the GI50 at 72 h in [13], in data set [14] and in data set [15] were 4.69 µM, more than 10 µM and more than 10 µM, respectively. For the same molecule, the GI50 with GISTT1 [16] was 0.003 µM; in the data set with GIST882, 0.02 µM; in [17], 6.99 µM; in the data set with KU812 cell line, 0.11 µM; in the data set on MEG-01, 0.045 µM; in data set [19], 0.0249 µM. The GI50 was more than 10 µM in [7]; 0.0451 µM in [20]; 0.803 µM in data set [21]; 0.803 µM in data set [22]; 0.148 µM in data set [23]; 1.47 µM in data set [24]. Besides, in the data set with GISTT1 [18], the inhibition in vivo at 100 mg/kg came to 87.3%. For the same molecule, in the data set with BaF3, the TGI result is “inactive”.
